Legend:
[1] = tested on: EC1064 (NDM-1, CMY-6, CTX-M-15); assay: Carbapenem potentiation against clinical isolate (MIC); assay type: cell-based, Escherichia coli
[2] = tested on: KP1081 (NDM-1, TEM-1, SHV-11, CMY-6, CTX-M-15); assay: as above; assay type: cell-based
[3] = tested on: AB1144 (NDM-1); assay: as above; assay type: cell-based, Acinetobacter baumannii; conditions: AB1144
[4] = tested on: EA1019 (SHV-5, VIM-1); assay: as above; assay type: cell-based, Enterobacter aerogenes; conditions: EA1019
[5] = tested on: KP1014 (VIM-1); assay: as above; assay type: cell-based, Klebsiella pneumoniae
[6] = tested on: KP1059 (VIM-1, SHV-11); assay: Biapenem potentiation against clinical isolate (MIC); assay type: cell-based; conditions: Klebsiella pneumoniae, biapenem alone
From the text: The results are present in Table 9.

[7] = tested on: KP1054 (VIM-1, SHV-11); assay: Carbapenem potentiation against clinical isolate (MIC); assay type: cell-based, Klebsiella pneumoniae
[8] = tested on: KP1064 (KPC-2, SHV-11, TEM-1); assay: as above; assay type: cell-based, Klebsiella pneumoniae
[9] = tested on: KP1074 (KPC-3, SHV-11, TEM); assay: as above; assay type: cell-based, Klebsiella pneumoniae
[10] = tested on: KP1084 (KPC-3, SHV-11, TEM-1); assay: as above; assay type: cell-based, Klebsiella pneumoniae
[11] = tested on: KP1004 (KPC-2, TEM-1, SHV-11); assay: as above; assay type: cell-based, Klebsiella pneumoniae
[12] = tested on: KP1087 (KPC-2, CTX-M-15, SHV-11, TEM-1); assay: as above; assay type: cell-based
[13] = tested on: KP1086 (TEM, SHV, CTX-M-15, OXA-48); assay: as above; assay type: cell-based, Klebsiella pneumoniae
[14] = Klebsiella pneumoniae, biapenem alone

C[C@@H](O)[C@H]1C(=O)N2C(C(=O)[O-])=C(SC3Cn4cnc[n+]4C3)[C@H](C)[C@H]12 (stereo partly shown) [Biapenem]
MIC ([1]; Escherichia coli, biapenem alone): > 10 µg/mL
Carbapenem MIC Alone ([1]; antibiotic alone): Z (MIC of greater than 10 μg/mL)
MIC [2, 14]: > 10 µg/mL
Carbapenem MIC Alone ([2]; antibiotic alone): Z (MIC of greater than 10 μg/mL)
Carbapenem MIC Alone ([3]; antibiotic alone): Y (MIC of 1 μg/mL to 10 μg/mL)
MIC ([3]; Acinetobacter baumannii, biapenem alone): > 10 µg/mL
Carbapenem MIC Alone ([4]; antibiotic alone): Z (MIC of greater than 10 μg/mL)
MIC ([4]; Klebsiella aerogenes, biapenem alone): > 10 µg/mL
MIC [5, 14]: > 10 µg/mL
Carbapenem MIC Alone ([5]; antibiotic alone): Z (MIC of greater than 10 μg/mL)
MIC [6]: > 10 µg/mL
MIC [7, 14]: > 10 µg/mL
Carbapenem MIC Alone ([7]; antibiotic alone): Z (MIC of greater than 10 μg/mL)
MIC [8, 14]: > 10 µg/mL
Carbapenem MIC Alone ([8]; antibiotic alone): Z (MIC of greater than 10 μg/mL)
MIC [9, 14]: > 10 µg/mL
Carbapenem MIC Alone ([9]; antibiotic alone): Z (MIC of greater than 10 μg/mL)
MIC [10, 14]: > 10 µg/mL
Carbapenem MIC Alone ([10]; antibiotic alone): Z (MIC of greater than 10 μg/mL)
MIC [11, 14]: > 10 µg/mL
Carbapenem MIC Alone ([11]; antibiotic alone): Y (MIC of 1 μg/mL to 10 μg/mL)
MIC [12, 14]: > 10 µg/mL
Carbapenem MIC Alone ([12]; antibiotic alone): Z (MIC of greater than 10 μg/mL)
MIC [13, 14]: > 10 µg/mL
Carbapenem MIC Alone ([13]; antibiotic alone): Z (MIC of greater than 10 μg/mL)

From patent US10206937B2, “Boronic acid derivatives and therapeutic uses thereof” (Qpex Biopharma, Inc., priority 2014, dated 2019)
